Source: article PMC9870890 (Nature Communications, 2023)
Numbering of substitutions follows the chain as printed. Where “and” joins values, the source holds several entries; their conditions need not be identical. Equal values may be shown once. Read-outs that look alike come from different tables or passages of the source. Each block holds one compound with its values, some of them ahead of it.

Assays:
[1] = molecular target: M2 muscarinic receptor (M2R), wild type (human) (UniProt P08172)
M2R [2] = molecular target: T1, M2R (Homo sapiens, UniProt P08172, M139L/M142L/M1T/M248L/M296L/M368L/M456T/M45L); assay type: biochemical; conditions: 100 μM Ixo or 1 mM carbachol
T1 construct: We used a full-length construct M2RFL△8 M for complexing with miniGαo and β-arrestin-1; FLAG (N); 8xHis (C); made in house; host or cells: Sf9 insect cells
T1 sequence (P08172 1-466 M1T/M45L/M139L/M142L/M248L/M296L/M368L/M456T): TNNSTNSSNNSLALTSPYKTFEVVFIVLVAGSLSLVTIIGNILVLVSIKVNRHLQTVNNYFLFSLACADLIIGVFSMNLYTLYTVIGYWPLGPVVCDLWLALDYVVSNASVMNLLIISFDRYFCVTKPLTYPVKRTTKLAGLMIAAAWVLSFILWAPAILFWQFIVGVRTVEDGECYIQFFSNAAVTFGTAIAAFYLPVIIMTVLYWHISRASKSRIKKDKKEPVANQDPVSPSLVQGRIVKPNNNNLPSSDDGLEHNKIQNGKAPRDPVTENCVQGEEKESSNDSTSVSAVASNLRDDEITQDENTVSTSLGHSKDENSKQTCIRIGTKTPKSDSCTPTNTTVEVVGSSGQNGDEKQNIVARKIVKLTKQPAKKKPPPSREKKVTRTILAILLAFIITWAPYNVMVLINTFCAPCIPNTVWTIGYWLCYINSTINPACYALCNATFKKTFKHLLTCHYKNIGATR
Description: We used a full-length construct M2RFL△8 M for complexing with miniGαo and β-arrestin-1. The receptor was purified as described above for cryo-EM sample. Excess GRK2 was mixed with the M2R in a buffer composed of 20 mM HEPES pH 7.5, 100 mM NaCl, 0.01% MNG, 0.003% CHS, 500 μM ATP in the presence and absence of 100 μM Ixo or 1 mM carbachol to initiate the phosphorylation at room temperature. The extent of phosphorylation at various time points (from 0 to 120 min) was evaluated by Pro-Q and Coomassie blue staining. The final phosphorylated receptor (Ixo-bound) was further evaluated by ion-exchange chromatography. The complex formation test was performed as follows: unphosphorylated Ixo-bound M2RFL△8 M or phosphorylated M2RFL△8 M was mixed with miniGαo or β-arrestin-1, respectively and incubated on ice for 30 min. The receptor alone or mixed complex sample were then analyzed by SEC against 20 mM HEPES pH 7.5, 100 mM NaCl, 0.01% MNG, 0.003% CHS in the presence of 10 μM Ixo.

M2R [3] = molecular target: T2, M2R (Homo sapiens, UniProt P08172)
T2 sequence (P08172 1-466): T1 sequence (P08172 1-466 M1T/M45L/M139L/M142L/M248L/M296L/M368L/M456T) with T1M, L45M, L139M, L142M, L248M, L296M, L368M, T456M

M2R and GoA = molecular target: T3, M2R and GoA (Homo sapiens, UniProt P08172); test: GTPase-Glo assay (GTP turnover) with purified M2R and GoA; assay type: biochemical; conditions: purified wild-type receptor and G-protein
T3 construct: FLAG (N); 8xHis (C); made in house; host or cells: Sf9 insect cells (receptor)
Description: The receptors for GTPase-Glo^TM assay were expressed and purified as described above and frozen at −80 °C before use. […] The GTPase reaction was incubated at room temperature (22–25 °C) for different times (15–90 min). […] After incubation, 5 μL reconstituted 1xGTPase-Glo^TM Reagent (Promega) was added to the completed GTPase reaction, mixed briefly and incubated with shaking for 30 min at room temperature (22–25 °C) to convert the remaining GTP into ATP. Then 10 μL Detection Reagent (Promega) was added to the system and incubated for 5-10 min at room temperature (22–25 °C) to convert the ATP into luminescent signals. Luminescence intensity was quantified using a Multimode Plate Reader (PerkinElmer) luminescence counter.

M2R [4] = molecular target: T2, M2R; test: cell-based; design: expressed in transfected cells; host or cells: HEK 293T; conditions: for Emax: HEK-293T
Description: Determination of β-arrestin-2 recruitment was performed applying the PathHunter assay (DiscoverX, Birmingham, U.K.) which is based on fragment complementation of β-galactosidase as described. In detail, HEK293T cells were transfected with the flag-tagged M2 receptor carrying the PKA fragment for enzyme complementation and transferred into 384-well micro plates. […] Determination of chemoluminescence was done with a Clariostar plate reader (BMG, Ortenberg, Germany). […] Normalized curves from three to five individual experiments each done in duplicate were analyzed by non-linear regression applying the algorithms in Prism 8.0 (GraphPad, San Diego, CA) to get dose-response curves representing average EC50 and Emax value.

- increase of the affinity of ACh in [3H]-NMS competition binding on M2R in HDL particles on addition of GoA [1]: 65 fold
- increase of the affinity of Ixo in [3H]-NMS competition binding on M2R in HDL particles on addition of GoA [1]: 27 fold
Compound: heterotrimeric GoA protein (from UniProt P09471 1-354; P62873 2-340; P59768 1-71) (complex)

- Phosphorylation intensity (M2R [2]; Time 5 min): 334.849
- Phosphorylation intensity (M2R [2]; Time 10 min): 686.698
- Phosphorylation intensity (M2R [2]; Time 15 min): 1559.5
- Phosphorylation intensity (M2R [2]; Time 30 min): 4508.03
- Phosphorylation intensity (M2R [2]; Time 60 min): 11137.8
- Phosphorylation intensity (M2R [2]; Time 120 min): 15286
Compound: C[N+](C)(C)CCOC(N)=O [Carbachol, carbachol]

Compound: Cc1c(Cl)c(OCC(=O)N2CCN(C)CC2)nc2sc(C(=O)NC3CC3)c(N)c12 [LY2119620]
- activation of the receptor by the modulator on its own (M2R [3]): can activate the receptor on its own with low efficacy
- IP accumulation as % max effect of acetylcholin (M2R [3]; LY2119620 alone log [M] -4): 59.0% and 70.9% and 76.8% and 52.3% and 51.5% and 62.7% and 67.1%
- IP accumulation as % max effect of acetylcholin (M2R [3]; LY2119620 alone log [M] -10): 3.3% and -1.8% and -2.5% and -3.4% and 3.1%
- inhibition of maximal G-protein activation of both orthosteric agonists (M2R [3]; high concentrations of LY2119620): ~ 10%
- effect on GTP-turnover for both ACh and Ixo (M2R and GoA): significant inhibitory effects
- Emax (M2R [4]; read-out: arrestin recruitment as % max effect of acetylcholin, LY2119620 log [M] 3-4): 46.3%
- Emax (M2R [4]; read-out: arrestin recruitment as % max effect of acetylcholin, LY2119620 log [M] 3-5): 52.5%
- Emax (M2R [4]; read-out: arrestin recruitment as % max effect of acetylcholin, LY2119620 log [M] -5): 42.1%
- arrestin recruitment as % max effect of acetylcholin (M2R [4]; LY2119620 log [M] 3-4): 48.9%
- arrestin recruitment as % max effect of acetylcholin (M2R [4]; LY2119620 log [M] 3-5): 50.0% and 48.5%
- arrestin recruitment as % max effect of acetylcholin (M2R [4]; LY2119620 log [M] 3-7): -0.0286% and 2.4%
- arrestin recruitment as % max effect of acetylcholin (M2R [4]; LY2119620 log [M] -4): 58.7% and 38.0% and 68.2% and 60.8% and 51.7%
- arrestin recruitment as % max effect of acetylcholin (M2R [4]; LY2119620 log [M] -5): 33.4% and 43.9% and 30.6% and 32.3%
- arrestin recruitment as % max effect of acetylcholin (M2R [4]; LY2119620 log [M] -6): 10.6% and 7.5% and 6.2% and 2.4% and 3.8%
- arrestin recruitment as % max effect of acetylcholin (M2R [4]; LY2119620 log [M] -7): 2.1% and 1.5% and 2.0% and 0.9% and 2.9%
- arrestin recruitment as % max effect of acetylcholin (M2R [4]; LY2119620 log [M] -8): 0.6% and 0.5% and 0.9% and -0.171% and -0.548%
- arrestin recruitment as % max effect of acetylcholin (M2R [4]; LY2119620 log [M] -9): 1.3% and -0.4% and -1.2% and -3.6%
